The data set concerns CYP1A1 gene expression. Briefly: CYP1A1 gene expression (qRT-PCR) in keratinocytes after induction with model particles. In kind it is cell-based, human. The conditions noted are these: 10 μM, untreated = 1. Here is the method: Gene expression was analyzed via qRT-PCR.
For orientation: Real-time PCR tracks product formation cycle by cycle.

Regarding “E/Z-2-benzylindene-5,6-dimethoxy-3,3-dimethylindan-1-one [BDDI]”, the “CYP1A1 Induction mean ± SE” value runs as follows: (NHEK adult, SRM1650 1.5 μg/cm2, 6 h) 0.02 ± 0.00; (NHEK adult, SRM2975 1.5 μg/cm2, 6 h) 0.20 ± 0.00; (NHEK adult, SRM2975 1.5 μg/cm2, 24 h) 0.01 ± 0.00; (indoor particles Huber990 1.5 μg/cm2, 6 h) 0.05 ± 0.00; (indoor particles Huber990 1.5 μg/cm2, 24 h) 0.20 ± 0.00.

The values above are taken from patent publication US10780043B2, “Cosmetic compositions comprising ginger root extracts” (Symrise AG, priority 2015, dated 2020).
